# Data taken from article PMC4725915, “Ruthenium(II) Complexes with 2-Phenylimidazo[4,5-f][1,10]phenanthroline Derivatives that Strongly Combat Cisplatin-Resistant Tumor Cells” (Scientific Reports, 2016).
# Legend:
# [1] = system: A549R cells; assay: Subcellular distribution study by ICP-MS; format: cell-based, human; details: 2.0 μM, 12 h
# Experimental: (§1) To understand the high sensitivity of cancer cells to Ru(II) complexes, the extent of cellular uptake was investigated with inductively coupled plasma mass spectrometry (ICP-MS) by treating the HeLa, A549, A549R and LO2 cell lines with 2.0 μM concentrations of the Ru(II) complexes and cisplatin for 12 h. […] In this study, the cellular uptake and lipophilicity were distinctly correlated and followed the order: 4 >3 >2 >1. Complex 4 had the best accumulation, but the amount of Ru in LO2 cells was far less than that in the three cancer lines, indicating selective accumulation and improved efficiency for treating cancer. Cisplatin was taken up more efficiently by the sensitive cell line (A549) than by the cisplatin-resistant cell line (A549R). […] However, less than 1.5% of the cellular platinum was accumulated in the mitochondrial fraction of the A549R cells. Therefore, complex 4 could function in a different manner than cisplatin in A549R cells, which would be an appropriate solution to combat cisplatin resistance in tumor cells.
# A549R cells were plated at a density of 1 × 10^5 cells/mL in 10 mL of DMEM for 24 h at 37 °C under 5% CO2 and 20% O2. […] The ruthenium or platinum contents were determined using inductively coupled plasma mass spectrometry (ICP-MS Thermo Elemental Co., Ltd.).
# [2] = Distribution coefficient (log Po/w), flask-shaking, n-octanol/phosphate buffer; format: physicochemical; details: n-octanol / phosphate buffer pH 7.4, 37 °C; in words only (Figure S8)
# Experimental: Distribution coefficients (log Po/w) were determined by liquid-liquid extraction between n-octanol (oil) and phosphate buffers (0.2 M, pH 7.4) with the flask-shaking method. N-Octanol and the buffer were mutually saturated with each other for at least 24 h before use. An aliquot of a ruthenium complex stock solution was added to the phosphate buffer concentrations at <10 mg/mL, and the mixture was shaken at 100 rpm for 24 h at 37 °C to allow for adequate partitioning. After the sample was centrifuged at 3000 rpm for 20 min, the aqueous layer was used for ruthenium analysis, and the Ru content in the aqueous layer was measured by ICP-MS and used to calculate the log Po/w.
# [3] = system: A549; assay: MTT cytotoxicity assay, A549; format: cell-based, human; details: A549, 48 h, mean ± SD of three experiments
# Experimental: (§2) Compounds 1–4 were evaluated against three tumor cell lines derived from different tissues, including the cervix (HeLa), lung (A549) and cisplatin-resistant lung (A549R) tissues. For comparison, the cytotoxicity of cisplatin was also evaluated. As a control, the toxicities of the complexes were also tested against the normal human cell line (LO2).
# (§3) The human cervix carcinoma cell line (HeLa), the lung carcinoma cell lines (A549 and A549R), and the human hepatocyte cell line (LO2) were obtained from the Experimental Animal Center at Sun Yat-Sen University (Guangzhou, China). The cells were maintained in Dulbecco’s modified Eagle’s medium (DMEM, Gibco BRL) or Roswell Park Memorial Institute 1640 (RPMI 1640, Gibco BRL) medium supplemented with 10% fetal bovine serum (FBS, Gibco BRL), 100 μg/mL streptomycin, and 100 U/mL penicillin (Gibco BRL) in a humidified incubator under 5% CO2 and 20% O2 at 37 °C. To maintain the resistant phenotype, A549R cells were incubated with 5 μM cisplatin and cultured in drug-free medium for at least a week before use.
# (§4) The cytotoxicity of the ruthenium complexes and cisplatin were determined by an MTT assay. Briefly, cells were seeded into 96-well microtiter plates at 1 × 10^4 cells per well and grown overnight at 37 °C in a 5% CO2 incubator; then, different concentrations of the complexes in cell culture medium were added to the cultures. The plates were then incubated in an incubator for 48 h under the same conditions. The stock MTT dye solution (15 μL, 5 mg/mL) was added to each well. After 4 h of incubation, the cultures were removed and 150 μL of DMSO was added to each well. The optical density of each well was measured on a microplate spectrophotometer at a wavelength of 595 nm.
# [4] = system: LO2; assay: MTT cytotoxicity assay, normal LO2 cells; format: cell-based; details: LO2 normal human cell line, 48 h
# Experimental: as §2, §3, §4
# [5] = system: TrxR; assay: TrxR activity assay in A549R cells (DTNB reduction); format: cell-based, human; details: 4.0 μM, 12 h
# Text: The elevated levels of TrxR in cancers, especially in non-small cell lung cancers, are responsible for drug resistance. The thioredoxin system has a significant influence on intracellular physiological processes, such as antioxidant defense, cell functions, cell apoptosis and cell proliferation. TrxR has previously been identified as a drug target. […] In addition, the expression levels of TrxR in A549R cells in response to the addition of complex 4 were also examined by Western blot analysis.
# A549R cells (2 × 10^6 cells) treated or untreated with complex 4 for 12 h were homogenized in 100–200 μl of cold assay buffer on ice and a protease inhibitor cocktail was added to the sample; the sample was then centrifuged at 10,000 x g for 15 min at 4 °C. The supernatant was collected for the assay and stored on ice. The protein concentration of each supernatant was determined using the Bradford reagent. A total of 40 μl of the reaction mix (30 μl assay buffer, 8 μl 5, 5′-dithiobis (2-nitrobenzoic) acid (DTNB) solution and 2 μl NADPH) was added to each sample and incubated at 25 °C for 20 min. TrxR catalyzes the reduction of DTNB by NADPH to 5-thio-2-nitrobenzoic acid (TNB2), which generates a strong yellow color (λmax = 412 nm); consequently, the amount of […] was used to monitor the change in absorbance at 412 nm. […]
# [6] = system: A549R cells; assay: Cell uptake study by ICP-MS; format: cell-based, human; details: A549R, 2.0 μM, 12 h
# Experimental: as §1
# The cells were plated at a density of 1 × 10^5 cells/mL in 10 mL of DMEM for 24 h at 37 °C under 5% CO2 and 20% O2, Ruthenium complexes (2.0 μM) and cisplatin were added to the culture medium and incubated for 12 h, and mixed with cold PBS and a trypsin-EDTA solution in a centrifuge tube for counting. Then, the nuclei and cytoplasm of the cells were extracted by using a Nuclear and Cytoplasmic Protein Extraction Kit (Life Technologies). The samples were digested in 20% HNO3 and 10% H2O2 at room temperature overnight. Each sample was then diluted with Milli-Q water to obtain 2% HNO3 sample solutions. Ruthenium contents were determined using inductively coupled plasma mass spectrometry (ICP-MS Thermo Elemental Co., Ltd.).
substance,measurement,setting,value
Ru(phen)(bzq)(tbtfpip)(PF6) [Complex 4],share of cellular metal accumulated in the mitochondrial fraction,[1],over 55%
same,log Po/w,[2],largest
same,IC50,[3],1 ± 0.2 µM
same,IC50,[4],6.7 ± 2.4 µM
same,decline of intracellular TrxR activity,[5],approximately 45%
same,share of the compound taken up by A549R cells,[6],Approximately 8%
